# Values joined by “and” are separate entries in the source; they are usually repeats but may differ in a detail not shown here. Equal entries are not always repeated. Toxic doses and inconclusive results are not listed.
# Tested on: BDF1 mice, B16 melanoma ip, median survival T/C
# Assay: NCI In Vivo Anticancer Drug Screen. Data for tumor model B16 Melanoma (intraperitoneal) in B6D2F1 (BDF1) mice
# Settings: endpoint: median survival time, higher = longer survival
# In short: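 Compounds were tested in mice carrying transplantable tumors. Survival or tumor size was recorded, and each value is the treated-group measurement (T) divided by that of the vehicle-treated control group (C).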
# [1] = dose: 0.06 mg/kg/injection, schedule: Q01DX009 (ip), vehicle: saline
# [2] = dose: 100.0 mg/kg/injection, schedule: Q01DX009 (ip), vehicle: Klucel (hydroxypropylcellulose) (HPC)
# [3] = dose: 200.0 mg/kg/injection, schedule: Q01DX009 (ip), vehicle: Klucel (hydroxypropylcellulose) (HPC)
# [4] = dose: 400.0 mg/kg/injection, schedule: Q01DX009 (ip), vehicle: Klucel (hydroxypropylcellulose) (HPC)
# [5] = dose: 100.0 mg/kg/injection, schedule: Q01DX009 (ip), vehicle: saline with Tween-80
# [6] = dose: 200.0 mg/kg/injection, schedule: Q01DX009 (ip), vehicle: saline with Tween-80
# [7] = dose: 50.0 mg/kg/injection, schedule: Q01DX009 (ip), vehicle: saline
# [8] = dose: 50.0 mg/kg/injection, schedule: Q01DX009 (ip), vehicle: saline with Tween-80
# [9] = dose: 12.5 mg/kg/injection, schedule: Q01DX009 (ip), vehicle: saline with Tween-80
# [10] = dose: 25.0 mg/kg/injection, schedule: Q01DX009 (ip), vehicle: saline with Tween-80
smiles,measurement,setting,value
C1CN1c1nc(N2CC2)nc(N2CC2)n1,T/C,"dose: 0.05 mg/kg/injection, schedule: Q01DX009 (ip), vehicle: saline",97 % of control and 108 % of control
same,T/C,[1],103 % of control
same,T/C,"dose: 0.06 mg/kg/injection, schedule: Q01DX009 (ip), vehicle: suspension in saline",103 % of control
same,T/C,"dose: 0.1 mg/kg/injection, schedule: Q01DX009 (ip), vehicle: saline",103 % of control and 109 % of control and 120 % of control
same,T/C,"dose: 0.12 mg/kg/injection, schedule: Q01DX009 (ip), vehicle: saline with Tween-80",107 % of control
same,T/C,"dose: 0.12 mg/kg/injection, schedule: Q01DX009 (ip), vehicle: suspension in saline",100 % of control
same,T/C,"dose: 0.13 mg/kg/injection, schedule: Q01DX009 (ip), vehicle: saline sonified",94 % of control and 96 % of control
same,T/C,"dose: 0.13 mg/kg/injection, schedule: Q01DX009 (ip), vehicle: saline with Tween-80",102 % of control and 105 % of control
same,T/C,"dose: 0.25 mg/kg/injection, schedule: Q01DX009 (ip), vehicle: saline sonified",96 % of control and 100 % of control
same,T/C,"dose: 0.25 mg/kg/injection, schedule: Q01DX009 (ip), vehicle: saline with Tween-80",107 % of control and 108 % of control and 119 % of control
same,T/C,"dose: 0.25 mg/kg/injection, schedule: Q01DX009 (ip), vehicle: suspension in saline",108 % of control
same,T/C,"dose: 0.3 mg/kg/injection, schedule: Q01DX009 (ip), vehicle: saline",150 % of control
same,T/C,"dose: 0.5 mg/kg/injection, schedule: Q01DX009 (ip), vehicle: saline sonified",96 % of control and 101 % of control
same,T/C,"dose: 0.5 mg/kg/injection, schedule: Q01DX009 (ip), vehicle: saline with Tween-80",105 % of control and 114 % of control and 119 % of control
same,T/C,"dose: 0.5 mg/kg/injection, schedule: Q01DX009 (ip), vehicle: suspension in saline",124 % of control
same,T/C,"dose: 0.5 mg/kg/injection, schedule: Q08DX002 (ip), vehicle: saline sonified",98 % of control and 103 % of control
same,T/C,"dose: 0.5 mg/kg/injection, schedule: Q08DX002 (ip), vehicle: saline with Tween-80",100 % of control and 119 % of control
same,T/C,"dose: 1.0 mg/kg/injection, schedule: Q01DX009 (ip), vehicle: suspension in saline",109 % of control
same,T/C,"dose: 1.0 mg/kg/injection, schedule: Q08DX002 (ip), vehicle: saline sonified",108 % of control and 114 % of control
same,T/C,"dose: 1.0 mg/kg/injection, schedule: Q08DX002 (ip), vehicle: saline with Tween-80",102 % of control and 113 % of control and 116 % of control
same,T/C,"dose: 2.0 mg/kg/injection, schedule: Q08DX002 (ip), vehicle: saline sonified",105 % of control
same,T/C,"dose: 2.0 mg/kg/injection, schedule: Q08DX002 (ip), vehicle: saline with Tween-80",123 % of control
same,T/C,"dose: 4.0 mg/kg/injection, schedule: Q08DX002 (ip), vehicle: saline with Tween-80",90 % of control and 105 % of control
NC(=O)c1ccccc1NC(=O)COc1ccc(Cl)cc1,T/C,[2],106 % of control
same,T/C,[3],106 % of control
same,T/C,[4],100 % of control
CCCCCc1ccccc1,T/C,[2],106 % of control
same,T/C,[3],110 % of control
same,T/C,[4],90 % of control
N#CSc1ccc(NN)cc1,T/C,"dose: 6.25 mg/kg/injection, schedule: Q01DX009 (ip), vehicle: other",96 % of control
same,T/C,"dose: 12.5 mg/kg/injection, schedule: Q01DX009 (ip), vehicle: other",114 % of control
same,T/C,"dose: 25.0 mg/kg/injection, schedule: Q01DX009 (ip), vehicle: other",99 % of control
C/C=C(\Cl)C1=CC(=O)C23CC2C2(C)COC1(O)C3(O)O2 (configuration not stated),T/C,"dose: 0.75 mg/kg/injection, schedule: Q01DX009 (ip), vehicle: saline with Tween-80",91 % of control
O=C(Nc1ccc(F)cc1)Nc1ccc(Cl)cc1,T/C,[5],89 % of control
same,T/C,[6],89 % of control
CC#CCOCC(O)CO (configuration not stated),T/C,"dose: 12.5 mg/kg/injection, schedule: Q01DX009 (ip), vehicle: water",105 % of control
same,T/C,"dose: 25.0 mg/kg/injection, schedule: Q01DX009 (ip), vehicle: water",93 % of control
same,T/C,"dose: 50.0 mg/kg/injection, schedule: Q01DX009 (ip), vehicle: water",113 % of control
same,T/C,"dose: 100.0 mg/kg/injection, schedule: Q01DX009 (ip), vehicle: water",114 % of control
CC(C)N(Cc1ccccc1)CC(O)c1ccc(Cl)cc1 (configuration not stated),T/C,"dose: 12.5 mg/kg/injection, schedule: Q01DX009 (ip), vehicle: saline",94 % of control
same,T/C,"dose: 25.0 mg/kg/injection, schedule: Q01DX009 (ip), vehicle: saline",86 % of control
same,T/C,[7],101 % of control
c1ccc2[nH]c(/N=N/c3nc4ccccc4[nH]3)nc2c1,T/C,[2],102 % of control
same,T/C,[3],102 % of control
same,T/C,[4],91 % of control
CCCCCCCCCCCCCCCC(=O)O[C@@]12C[C@@H](C)[C@@]3(O)[C@@H](C=C(CO)C[C@]4(O)C(=O)C(C)=C[C@@H]34)[C@@H]1C2(C)C,T/C,"dose: 0.03 mg/kg/injection, schedule: Q01DX009 (ip), vehicle: saline + Tween-80 + alcohol",103 % of control
same,T/C,"dose: 0.03 mg/kg/injection, schedule: Q01DX009 (ip), vehicle: saline",94 % of control
same,T/C,"dose: 0.06 mg/kg/injection, schedule: Q01DX009 (ip), vehicle: saline + Tween-80 + alcohol",109 % of control
same,T/C,[1],99 % of control
same,T/C,"dose: 0.12 mg/kg/injection, schedule: Q01DX009 (ip), vehicle: saline",96 % of control
same,T/C,"dose: 0.13 mg/kg/injection, schedule: Q01DX009 (ip), vehicle: other",103 % of control
same,T/C,"dose: 0.13 mg/kg/injection, schedule: Q01DX009 (ip), vehicle: saline + Tween-80 + alcohol",110 % of control
same,T/C,"dose: 0.25 mg/kg/injection, schedule: Q01DX009 (ip), vehicle: saline",92 % of control
same,T/C,"dose: 0.5 mg/kg/injection, schedule: Q01DX009 (ip), vehicle: saline",92 % of control
Nc1ccc(OCc2ccc(S(=O)(=O)F)c(Cl)c2)c(Cl)c1,T/C,[2],110 % of control
same,T/C,[3],110 % of control
NCCCC(NN)C(=O)O (configuration not stated),T/C,"dose: 7.5 mg/kg/injection, schedule: Q01DX009 (ip), vehicle: saline",109 % of control
same,T/C,"dose: 15.0 mg/kg/injection, schedule: Q01DX009 (ip), vehicle: saline",111 % of control
same,T/C,"dose: 30.0 mg/kg/injection, schedule: Q01DX009 (ip), vehicle: saline",104 % of control
O=C1O/C(=C\c2ccccc2)c2c(Br)c(Br)c(Br)c(Br)c21,T/C,[8],112 % of control
same,T/C,[5],107 % of control
same,T/C,[6],112 % of control
same,T/C,"dose: 400.0 mg/kg/injection, schedule: Q01DX009 (ip), vehicle: saline with Tween-80",112 % of control
CC(=O)CC(=O)Nc1ccc(-c2ccc(NC(=O)CC(C)=O)c(Cl)c2)cc1Cl,T/C,[2],87 % of control
same,T/C,[3],87 % of control
O=C1CCCC2C1C1(O)CCC2(O)c2cccc(O)c21 (configuration not stated),T/C,"dose: 1.56 mg/kg/injection, schedule: Q01DX009 (ip), vehicle: saline",90 % of control
same,T/C,"dose: 3.12 mg/kg/injection, schedule: Q01DX009 (ip), vehicle: saline",95 % of control
same,T/C,"dose: 3.12 mg/kg/injection, schedule: Q04DX003 (ip), vehicle: saline",93 % of control
same,T/C,"dose: 6.25 mg/kg/injection, schedule: Q01DX009 (ip), vehicle: saline",93 % of control
same,T/C,"dose: 6.25 mg/kg/injection, schedule: Q04DX003 (ip), vehicle: saline",91 % of control
same,T/C,"dose: 12.5 mg/kg/injection, schedule: Q01DX009 (ip), vehicle: Klucel (hydroxypropylcellulose) (HPC)",95 % of control
same,T/C,"dose: 12.5 mg/kg/injection, schedule: Q04DX003 (ip), vehicle: saline",91 % of control
same,T/C,"dose: 18.0 mg/kg/injection, schedule: Q04DX003 (ip), vehicle: saline",105 % of control
same,T/C,"dose: 28.0 mg/kg/injection, schedule: Q04DX003 (ip), vehicle: saline",103 % of control
C=CCc1cc2c(C)cc(=O)oc2c(C)c1OC(C)=O,T/C,"dose: 100.0 mg/kg/injection, schedule: Q04DX003 (ip), vehicle: gum acacia",95 % of control
same,T/C,"dose: 200.0 mg/kg/injection, schedule: Q04DX003 (ip), vehicle: gum acacia",86 % of control
same,T/C,"dose: 400.0 mg/kg/injection, schedule: Q04DX003 (ip), vehicle: gum acacia",86 % of control
C[C@]12CC[C@H]3[C@@H](CC[C@]4(O)C[C@@H](O)CC[C@]34C=O)[C@@]1(O)CC[C@@H]2C1=CC(=O)OC1,T/C,[9],104 % of control
same,T/C,[10],92 % of control
same,T/C,[8],97 % of control
same,T/C,[5],97 % of control
same,T/C,[6],90 % of control
CSc1ncnc2nc[nH]c12,T/C,"dose: 50.0 mg/kg/injection, schedule: Q01DX009 (ip), vehicle: Klucel (hydroxypropylcellulose) (HPC)",104 % of control
same,T/C,[2],100 % of control
same,T/C,[3],102 % of control
same,T/C,[4],88 % of control
Cc1ccc[n+](CCc2c[nH]c3ccccc23)c1,T/C,[9],111 % of control
same,T/C,[10],99 % of control
same,T/C,[8],95 % of control
CCCC(=O)Nc1ncnc2c1ncn2C1OC2COP(=O)(O)OC2C1OC(=O)CCC (configuration not stated),T/C,[7],100 % of control
same,T/C,"dose: 100.0 mg/kg/injection, schedule: Q01DX009 (ip), vehicle: saline",94 % of control
same,T/C,"dose: 200.0 mg/kg/injection, schedule: Q01DX009 (ip), vehicle: saline",89 % of control
